pIC50: −log10 of the molar value.
Tests used:
HT1080 cells = assay: Cellular assay for IDH1m R132C inhibitors, 2-HG by LC-MS in HT1080 cells; assay type: cell-based; details: Homo sapiens, HT-1080
Outline: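 2-HG levels were measured by LC-MS in culture medium sampled 48 h after compound addition (0.2% DMSO) to HT1080 cells seeded overnight at 5000 cells/well. A CellTiter-Glo luminescence read at 72 h gave cell viability.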

[1] = target: IDH1 wt/IDH1 R132H heterodimer (Homo sapiens (Human), UniProt O75874, R132H); assay: In vitro assay for IDH1m R132H inhibitors, IDH1 wt/IDH1 R132H heterodimer, NADPH depletion (diaphorase/resazurin); assay type: biochemical; details: IDH1 wt/R132H heterodimer, NADPH/NADP, not saturated; read-out: IDH1 wt/R132H NADPH/NADP IC50 not saturated
Chain of IDH1 wt/IDH1 R132H heterodimer (O75874 whole entry R132H): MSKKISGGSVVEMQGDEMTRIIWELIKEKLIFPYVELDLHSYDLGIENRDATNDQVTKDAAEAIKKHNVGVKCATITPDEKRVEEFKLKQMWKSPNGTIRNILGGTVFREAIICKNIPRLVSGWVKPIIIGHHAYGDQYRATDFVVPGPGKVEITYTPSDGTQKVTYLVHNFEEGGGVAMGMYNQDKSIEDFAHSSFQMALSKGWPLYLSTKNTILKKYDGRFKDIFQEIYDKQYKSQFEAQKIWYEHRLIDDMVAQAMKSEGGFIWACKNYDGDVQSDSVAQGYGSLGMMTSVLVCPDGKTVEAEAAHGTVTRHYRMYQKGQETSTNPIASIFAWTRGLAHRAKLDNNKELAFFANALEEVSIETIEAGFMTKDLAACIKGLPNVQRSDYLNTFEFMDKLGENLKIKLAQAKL
Chain of IDH1 wt/IDH1 R132H heterodimer (O75874 whole entry, stated change not applied): as the sequence (O75874 whole entry R132H) above, with H132R counted along it
Outline: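 Read-out is NADPH left after α-KG reduction to 2-HG, measured via resorufin fluorescence after 5 min diaphorase/resazurin step at 25° C. Enzyme is sf9-expressed IDH1wt-his/IDH1R132H-flag heterodimer, pre-incubated 1 hr at room temperature with compound and cofactor. IC50s from DMSO stocks diluted 1:50.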

IDH1 R132C = IDH1 R132C (Homo sapiens (Human), UniProt O75874, R132C); assay: In vitro assay IDH1 R132C homodimer, NADPH depletion assay; assay type: biochemical
Chain of IDH1 R132C (O75874 whole entry R132C): as the sequence (O75874 whole entry R132H) above, with H132C counted along it
Procedure: (§1) The following describes the experimental procedures that can be used to obtain data on columns 3 and 6 of Table 4.
(§2) A test compound is prepared as 10 mM stock in DMSO and diluted to 50× final concentration in DMSO, for a 50 μl reaction mixture. IDH enzyme activity converting alpha-ketoglutarate to 2-hydroxyglutaric acid is measured using a NADPH depletion assay. In the assay the remaining cofactor is measured at the end of the reaction with the addition of a catalytic excess of diaphorase and resazurin, to generate a fluorescent signal in proportion to the amount of NADPH remaining. […] The reaction is started with the addition of 10 μl of Substrate Mix ([…], 5 mM alpha-ketoglutarate, in Assay Buffer) and the mixture is incubated for 90 minutes at room temperature.
The concentration of NADPH and alpha-ketoglutarate in the Substrate Buffer is 20 μM and 1 mM, respectively.

[2] = target: IDH1-R132 homodimer enzyme (R132H) (Homo sapiens (Human), UniProt O75874, R132H); assay: In vitro assay IDH1-R132H homodimer, NADPH depletion assay; assay type: biochemical
Chain of IDH1-R132 homodimer enzyme (R132H) (O75874 whole entry R132H): as the sequence (O75874 whole entry R132H) above
Procedure: as §1, §2

IDH2 R140Q [3] = target: T1, IDH2 R140Q (Homo sapiens (Human), UniProt P48735, R140Q); assay: In vitro assay for IDH2m R140Q inhibitors, cofactor depletion assay; assay type: biochemical; details: IDH2 R140Q enzyme
T1 sequence (P48735 40-452 R140Q): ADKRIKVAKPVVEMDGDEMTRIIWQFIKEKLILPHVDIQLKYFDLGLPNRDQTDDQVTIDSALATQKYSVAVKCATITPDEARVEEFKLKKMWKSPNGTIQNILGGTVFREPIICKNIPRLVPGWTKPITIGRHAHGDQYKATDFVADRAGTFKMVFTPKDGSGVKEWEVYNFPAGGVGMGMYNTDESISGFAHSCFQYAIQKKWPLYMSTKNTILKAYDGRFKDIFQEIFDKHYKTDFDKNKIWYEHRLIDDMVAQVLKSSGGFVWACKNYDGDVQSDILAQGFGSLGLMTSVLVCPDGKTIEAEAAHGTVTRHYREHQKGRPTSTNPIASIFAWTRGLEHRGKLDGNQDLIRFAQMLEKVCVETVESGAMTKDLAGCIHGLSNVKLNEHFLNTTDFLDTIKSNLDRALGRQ
Outline: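 Remaining cofactor measured fluorimetrically: diaphorase/resazurin Stop Mix […], halting the reaction. Before that, mutant enzyme and compound sat 1 h at RT, then substrate mix (4 μM NADPH, 1.6 mM α-KG) was added for 16 h at RT.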

IDH2 R140Q [4] = target: T1, IDH2 R140Q; assay: In vitro assay for IDH2m R140Q inhibitors, cofactor depletion assay, 16 hr preincubation with NADPH/NADP; assay type: biochemical; details: read-out: IDH2 R140Q 16 hr NADPH/NADP IC50; 16 hrs preincubation with enzyme, 5 uM NADPH and 750 uM NADP
Text: The following describes the experimental procedures used to obtain data on column 6 of Table 5.
The reaction is terminated by the addition of a second enzyme, diaphorase, and a corresponding substrate, resazurin. Diaphorase reduces resazurin to the highly fluorescent resorufin with the concomitant oxidation of NADPH to NADP, both halting the IDH2 reaction by depleting the available cofactor pool and facilitating quantitation of the amount of cofactor remaining after a specific time period through quantitative production of an easily detected fluorophore.
The test compound is then incubated for 16 hrs at room temperature with the enzyme and cofactors before starting the IDH2 reaction with the addition of 10 μl of substrate mix containing 8 mM α-KG (final concentration 1.6 mM) in the buffer described above. After a further 1 hour of incubation at room temperature, the reaction is halted and the remaining NADPH measured through conversion of resazurin to resorufin by the addition of 25 μl Stop Mix (36 μg/ml diaphorase enzyme and 60 μM resazurin; in buffer).

[5] = target: IDH1-R132H homodimer enzyme (Homo sapiens (Human), UniProt O75874, R132H); assay: In vitro assay IDH1-R132H homodimer, NADPH depletion assay with NADPH/NADP preincubation; assay type: biochemical; details: 5 μM NADPH and 37.5 μM NADP
Chain of IDH1-R132H homodimer enzyme (O75874 whole entry R132H): as the sequence (O75874 whole entry R132H) above
Outline: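 Compounds were added from DMSO at 50× final concentration, and the mutant enzyme was incubated 60 min at room temperature after starting with a substrate mix holding NADPH and 5 mM alpha-ketoglutarate. Residual cofactor, read by fluorescence after excess diaphorase and resazurin, reflects enzyme turnover.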

SMILES	pIC50 [1]	pIC50 (IDH1 R132C)	pIC50 [2]	also measured
CC(Nc1nc(N[C@H](C)C2CC2)nc(-c2cccc(C(F)(F)F)n2)n1)c1cccc(F)c1 (stereo partly drawn) [Compound 28]	> 7.30	7.00 to 7.30	7.00 to 7.30	pIC50 (HT1080 cells): 7.00 to 7.30
C[C@@H](Nc1nc(NC2(c3ccccc3)CC2)nc(-c2cccc(C(F)(F)F)n2)n1)C1CC1 [Compound 30]	–	6.00 to 7.00	7.00 to 7.30	pIC50 (IDH2 R140Q [3]): 7.00 to 7.30
FC1(F)CCC(Nc2nc(NC3CCC(F)(F)C3)nc(-c3cccc(C(F)(F)F)n3)n2)C1 (stereo not drawn) [Compound 31]	–	> 7.30	> 7.30	pIC50 (HT1080 cells): > 7.30; pIC50 (IDH2 R140Q [3]): > 7.30
C[C@H](Nc1nc(N[C@@H](C)C2CC2)nc(-c2cccc(C(F)(F)F)n2)n1)C1CC1 [Compound 33]	–	7.00 to 7.30	> 7.30	pIC50 (HT1080 cells): > 7.30
C[C@H](Nc1nc(N[C@H](C)C2CC2)nc(-c2cccc(C(F)(F)F)n2)n1)C1CC1 [Compound 34]	–	7.00 to 7.30	> 7.30	pIC50 (HT1080 cells): > 7.30
FC(F)(F)c1cccc(-c2nc(NC3CC4CC4C3)nc(NC3CC4CC4C3)n2)n1 (stereo not drawn) [Compound 36]	> 7.30	7.00 to 7.30	> 7.30	–
CCCC(C)Nc1nc(N[C@H](C)C2CC2)nc(-c2cccc(C(F)(F)F)n2)n1 (stereo partly drawn) [Compound 39]	–	7.00 to 7.30	> 7.30	pIC50 (HT1080 cells): 7.00 to 7.30
COCC(C)Nc1nc(N[C@H](C)C2CC2)nc(-c2cccc(C(F)(F)F)n2)n1 (stereo partly drawn) [Compound 44]	–	< 6.00	6.00 to 7.00	–
C[C@@H](Nc1nc(N[C@H](C)C2CC2)nc(-c2cccc(Cl)n2)n1)C1CC1 [Compound 45]	–	7.00 to 7.30	> 7.30	–
CCN(CC)c1nc(N[C@H](C)C2CC2)nc(-c2cccc(Cl)n2)n1 [Compound 46]	–	< 6.00	< 6.00	–
C[C@@H](Nc1nc(N[C@H](C)C2CC2)nc(-c2cccc(C(F)(F)F)n2)n1)C(=O)O [Compound 47]	–	–	< 6.00	IDH1 R132C IC50 (IDH1 R132C): No Fit
C[C@@H](Nc1nc(N[C@H](C)C2CC2)nc(-c2cccc(C(F)(F)F)n2)n1)C(=O)N(C)C [Compound 48]	–	–	< 6.00	IDH1 R132C IC50 (IDH1 R132C): No Fit
CC(C)(CO)Nc1nc(Nc2ccnc(C(C)(F)F)c2)nc(-c2cccc(C(F)(F)F)n2)n1 [Compound 49]	–	< 6.00	< 6.00	–
C[C@@H](Nc1nc(NC2CCC(F)(F)CC2)nc(-c2cccc(C(F)(F)F)n2)n1)C1CC1 [Compound 50]	> 7.30	7.00 to 7.30	> 7.30	–
C[C@@H](Nc1nc(N[C@H](C)C2CC2)nc(-c2cccc(N3CCC3)n2)n1)C1CC1 [Compound 51]	–	< 6.00	< 6.00	–
CC(C)CNc1nc(NC(C)(C)C#N)nc(-c2cc(O)ccc2F)n1 [Compound 86]	7.00 to 7.30	< 6.00	< 6.00	–
C[C@@H](Nc1nc(NC2C3CC4CC(C3)CC2C4)nc(-c2cccc(C(F)(F)F)n2)n1)C1CC1 (stereo partly drawn) [Compound 234]	> 7.30	–	–	pIC50 (IDH2 R140Q [4]): 6.00 to 7.00; pIC50 [5]: 6.00 to 7.00
C[C@@H](Nc1cc(NC(C)(C)C)nc(-c2cccc(C(F)(F)F)n2)n1)C1CC1 [Compound 417]	–	< 6.00	6.00 to 7.00	pIC50 [5]: 6.00 to 7.00
C[C@@H](Nc1cc(NC2CCC(F)(F)CC2)nc(-c2cccc(Cl)n2)n1)C(F)(F)F [Compound 418]	7.00 to 7.30	–	–	pIC50 (IDH2 R140Q [4]): > 7.30

— patent US10028961B2, “Therapeutically active compounds and their methods of use” (AGIOS PHARMACEUTICALS, INC., priority 2013, dated 2018)
